# According to patent EP0535528A1, “Antibacterial 5-Nitro-1-methyl-imidazolyl-3-terbutyl-2-hydroxy-aryl-carbinols” (EURORESEARCH S.r.L., priority 1991, dated 1993):
# What was measured:
# Helicobapter pylori [1] = experiment: Minimal inhibiting concentration (agar dilution); assay type: cell-based
# Protocol: Substances under examination: EU11100, EU11102, EU11103, EU11104. Comparison substance: Metronidazole Solubilization of the substances: All the substances to be studied are dissolved at room temperature in DMSO. […] 10 strains of Helicobapter pylori are used of recent clinical isolation […] The sowing of the bacteria, prepared as described in the preceding test is carried out by means a "multi-point inoculator". After 48 hours incubation under the condition described in the preceding test, the plates are examined and the Minimal Inhibiting Concentration is evaluated, namely that dose corresponding to growth absence.
# Helicobapter pylori [2] = experiment: Inhibition halos of the bacterial growth (impregnated disks on agar); assay type: cell-based; settings: for activity against the Helicobapter pylori strains used: 10 strains; for Inhibition halo (mm), Average: average of 10 strains
# Protocol: Comparison substance: Metronidazole Solubilization of the substances : All the substances to be studied are dissolved at room temperature in DMSO.
# Some commercially available antibiogram disks are so impregnated with the above mentioned compounds that each disk has concentration equal to 10, 1, 0.1, 0.01 µg.
# 10 strains of Helicobapter pylori are used of recent clinical isolation.
# Columbia Blood Agar Base is used, containing 5% of defibrinated horse blood, 2 % of calf serum, 2 vials of Vitox per liter of medium and Vancomicine (10 µg/ml) Trimetoprim lactate(5 µg/ml) and Polimixin B (2.5 U/ml).
# 0.1 ml of a suspension of the different used strains are uniformly distributed onto Petri plates, containing 20 ml of Columbia Blood Agar base, obtained by taking a sample, by means of a platinum loop, of different colonies from a 48 hours culture, grown in anaerobiosis jars with "Gas Pack", without a catalyst and diluted into a physiological solution.
# 4 disks per plate, previously impregnated with the substances under examination, are then placed onto the agar layer of each plate.
# After 48 hours of anaerobiosis incubation, as above described, the inhibition halos of the bacterial growth, produced by the different activity of the substances inside the agar, are evaluated.
# Swiss female albino mice = experiment: Oral and intraperitoneal acute toxicity in mice (LD50, Probits method); assay type: in vivo; settings: mice
# Protocol: 20 Swiss female albino mice are used for this test of the average weight of 20 g (±2), coming from Nossan breeding .
# Cages: in Makrolon® with saw dust litter, Number of animals per cage: 5 Acclimation period: 1 week Temperature: 22°C (± 2°C) Humidity : 60%, Diet: pellets for mice produced by Nossan firm, Water ad libitum Fast before the treatment: 16 hours
# Oral by gastric route and intraperitoneal.
# The substances to be studied: EU11100, EU11102, EU11103, EU11104 are treated with 0.5% carboxymethylcellulose in spring water, for the oral administration, whereas the same substances are intraperitoneally administered in the form of a physiological solution .
# For each of the above mentioned substances, a mother suspension is prepared having a concentration in the active ingredient of 250 mg/ml for the oral administration, and analogously a mother suspension is prepared for the intraperitoneal administration having a concentration of the desired active principle of 100 mg/ml.
# The following doses are used • a) oral route: 5000 mg/kg • b) intraperitoneal route : 2000 mg/kg
# If mortality is observed at the above mentioned doses, other doses are administered in order to obtain a dose-response curve.
# 5 animals are used for every utilized concentration.
# After the administration of the above substances the animals are kept under observation for 14 days , during which the mortality and the behaviour is observed.
# LD₅₀ is determined on the base of the cumulative mortality observed in the successive 14 days after the administration by using the Probits method.
smiles,measurement,setting,value
"Cc1cc(C(O)c2ncc([N+](=O)[O-])n2C)c(O)c(C(C)(C)C)c1 (stereo not shown) [EU11103, 5-nitro-1-methyl-imidazolyl-3-terbutyl-2-hydroxy-5 methyl-phenyl-carbinol]",MIC50,Helicobapter pylori [1]; 10 strains,0.03 µg/mL
same,MIC90,Helicobapter pylori [1]; 10 strains,0.06 µg/mL
same,MIC range,Helicobapter pylori [1]; 10 strains,0.015 to 0.016 µg/mL
same,MIC values,"Helicobapter pylori [1]; in words, compared with Metronidazole",very low MIC values
same,MIC,Helicobapter pylori [1]; strain 1,0.06 µg/mL
same,MIC,Helicobapter pylori [1]; strain 2,0.06 µg/mL
same,MIC,Helicobapter pylori [1]; strain 3,0.03 µg/mL
same,MIC,Helicobapter pylori [1]; strain 4,0.03 µg/mL
same,MIC,Helicobapter pylori [1]; strain 5,0.03 µg/mL
same,MIC,Helicobapter pylori [1]; strain 6,0.03 µg/mL
same,MIC,Helicobapter pylori [1]; strain 7,0.06 µg/mL
same,MIC,Helicobapter pylori [1]; strain 8,0.06 µg/mL
same,MIC,Helicobapter pylori [1]; strain 9,0.03 µg/mL
same,MIC,Helicobapter pylori [1]; strain 10,0.015 µg/mL
same,activity against the Helicobapter pylori strains used,Helicobapter pylori [2]; 0.1 µg/disk,active against 4 out of 10 strains
same,activity against the Helicobapter pylori strains used,Helicobapter pylori [2]; 1 µg/disk,active against all the Helicobapter pylori used
same,activity against the Helicobapter pylori strains used,Helicobapter pylori [2]; disk test,active against all the Helicobapter pylori strains used
same,"Inhibition halo (mm), Average",Helicobapter pylori [2]; 1 µg/disk,26.7 mm
same,"Inhibition halo (mm), Average",Helicobapter pylori [2]; 10 µg/disk,36.6 mm
same,Inhibition halo (mm) at the concentration (µg/disk),"Helicobapter pylori [2]; strain 1, 0.01 µg/disk",0 mm
same,Inhibition halo (mm) at the concentration (µg/disk),"Helicobapter pylori [2]; strain 1, 1 µg/disk",30 mm
same,Inhibition halo (mm) at the concentration (µg/disk),"Helicobapter pylori [2]; strain 1, 10 µg/disk",40 mm
same,Inhibition halo (mm) at the concentration (µg/disk),"Helicobapter pylori [2]; strain 2, 0.01 µg/disk",0 mm
same,Inhibition halo (mm) at the concentration (µg/disk),"Helicobapter pylori [2]; strain 2, 0.1 µg/disk",0 mm
same,Inhibition halo (mm) at the concentration (µg/disk),"Helicobapter pylori [2]; strain 3, 0.01 µg/disk",0 mm
same,Inhibition halo (mm) at the concentration (µg/disk),"Helicobapter pylori [2]; strain 3, 0.1 µg/disk",0 mm
same,Inhibition halo (mm) at the concentration (µg/disk),"Helicobapter pylori [2]; strain 3, 1 µg/disk",24 mm
same,Inhibition halo (mm) at the concentration (µg/disk),"Helicobapter pylori [2]; strain 3, 10 µg/disk",35 mm
same,Inhibition halo (mm) at the concentration (µg/disk),"Helicobapter pylori [2]; strain 4, 0.01 µg/disk",0 mm
same,Inhibition halo (mm) at the concentration (µg/disk),"Helicobapter pylori [2]; strain 4, 0.1 µg/disk",20 mm
same,Inhibition halo (mm) at the concentration (µg/disk),"Helicobapter pylori [2]; strain 4, 10 µg/disk",44 mm
same,Inhibition halo (mm) at the concentration (µg/disk),"Helicobapter pylori [2]; strain 5, 0.01 µg/disk",0 mm
same,Inhibition halo (mm) at the concentration (µg/disk),"Helicobapter pylori [2]; strain 5, 0.1 µg/disk",0 mm
same,Inhibition halo (mm) at the concentration (µg/disk),"Helicobapter pylori [2]; strain 5, 1 µg/disk",17 mm
same,Inhibition halo (mm) at the concentration (µg/disk),"Helicobapter pylori [2]; strain 5, 10 µg/disk",22 mm
same,Inhibition halo (mm) at the concentration (µg/disk),"Helicobapter pylori [2]; strain 6, 0.01 µg/disk",0 mm
same,Inhibition halo (mm) at the concentration (µg/disk),"Helicobapter pylori [2]; strain 6, 1 µg/disk",32 mm
same,Inhibition halo (mm) at the concentration (µg/disk),"Helicobapter pylori [2]; strain 6, 10 µg/disk",43 mm
same,Inhibition halo (mm) at the concentration (µg/disk),"Helicobapter pylori [2]; strain 7, 0.01 µg/disk",0 mm
same,Inhibition halo (mm) at the concentration (µg/disk),"Helicobapter pylori [2]; strain 7, 0.1 µg/disk",0 mm
same,Inhibition halo (mm) at the concentration (µg/disk),"Helicobapter pylori [2]; strain 7, 1 µg/disk",20 mm
same,Inhibition halo (mm) at the concentration (µg/disk),"Helicobapter pylori [2]; strain 7, 10 µg/disk",28 mm
same,Inhibition halo (mm) at the concentration (µg/disk),"Helicobapter pylori [2]; strain 8, 0.01 µg/disk",0 mm
same,Inhibition halo (mm) at the concentration (µg/disk),"Helicobapter pylori [2]; strain 8, 0.1 µg/disk",21 mm
same,Inhibition halo (mm) at the concentration (µg/disk),"Helicobapter pylori [2]; strain 8, 1 µg/disk",37 mm
same,Inhibition halo (mm) at the concentration (µg/disk),"Helicobapter pylori [2]; strain 8, 10 µg/disk",45 mm
same,Inhibition halo (mm) at the concentration (µg/disk),"Helicobapter pylori [2]; strain 9, 0.01 µg/disk",0 mm
same,Inhibition halo (mm) at the concentration (µg/disk),"Helicobapter pylori [2]; strain 9, 0.1 µg/disk",0 mm
same,Inhibition halo (mm) at the concentration (µg/disk),"Helicobapter pylori [2]; strain 9, 1 µg/disk",22 mm
same,Inhibition halo (mm) at the concentration (µg/disk),"Helicobapter pylori [2]; strain 9, 10 µg/disk",33 mm
same,Inhibition halo (mm) at the concentration (µg/disk),"Helicobapter pylori [2]; strain 10, 0.01 µg/disk",0 mm
same,Inhibition halo (mm) at the concentration (µg/disk),"Helicobapter pylori [2]; strain 10, 0.1 µg/disk",0 mm
same,Inhibition halo (mm) at the concentration (µg/disk),"Helicobapter pylori [2]; strain 10, 1 µg/disk",24 mm
same,toxicity when intraperitoneally administered,"Swiss female albino mice; intraperitoneal, 2000 mg/kg",not toxic
same,toxicity when orally administered,"Swiss female albino mice; oral, 5000 mg/kg",not toxic
